This note sets out measurements from patent US9422285B2, “Substituted pyrazolo[1,5-A]-pyridine-3-carboxamides and use thereof” (Bayer Pharma Aktiengesellschaft, priority 2014, dated 2016).

Counter-ions that a name gives are not always drawn.

This experiment has as its target T1, recombinant guanylate cyclase reporter cell line (Rattus norvegicus, UniProt P19686+P20595).
T1 construct: expressed in transfected cells
T1 sequence (P19686 1-690): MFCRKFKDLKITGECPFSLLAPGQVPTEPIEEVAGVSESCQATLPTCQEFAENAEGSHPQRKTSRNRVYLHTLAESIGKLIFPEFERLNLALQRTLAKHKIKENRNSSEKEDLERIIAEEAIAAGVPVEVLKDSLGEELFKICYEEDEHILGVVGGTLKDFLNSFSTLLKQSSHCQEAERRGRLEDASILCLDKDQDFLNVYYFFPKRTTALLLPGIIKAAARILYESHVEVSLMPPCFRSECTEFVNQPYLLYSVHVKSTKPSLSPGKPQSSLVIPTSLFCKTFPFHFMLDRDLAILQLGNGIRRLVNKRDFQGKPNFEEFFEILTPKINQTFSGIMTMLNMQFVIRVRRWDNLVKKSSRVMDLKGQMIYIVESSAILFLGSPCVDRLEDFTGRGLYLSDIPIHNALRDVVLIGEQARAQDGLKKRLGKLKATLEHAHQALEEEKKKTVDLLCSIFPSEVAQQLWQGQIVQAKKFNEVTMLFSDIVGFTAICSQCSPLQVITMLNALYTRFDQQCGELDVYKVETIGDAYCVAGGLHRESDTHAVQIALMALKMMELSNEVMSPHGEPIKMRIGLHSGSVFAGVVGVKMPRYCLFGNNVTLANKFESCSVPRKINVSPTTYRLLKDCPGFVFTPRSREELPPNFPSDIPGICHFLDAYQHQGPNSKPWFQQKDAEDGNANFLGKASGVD
T1 sequence (P20595 1-619): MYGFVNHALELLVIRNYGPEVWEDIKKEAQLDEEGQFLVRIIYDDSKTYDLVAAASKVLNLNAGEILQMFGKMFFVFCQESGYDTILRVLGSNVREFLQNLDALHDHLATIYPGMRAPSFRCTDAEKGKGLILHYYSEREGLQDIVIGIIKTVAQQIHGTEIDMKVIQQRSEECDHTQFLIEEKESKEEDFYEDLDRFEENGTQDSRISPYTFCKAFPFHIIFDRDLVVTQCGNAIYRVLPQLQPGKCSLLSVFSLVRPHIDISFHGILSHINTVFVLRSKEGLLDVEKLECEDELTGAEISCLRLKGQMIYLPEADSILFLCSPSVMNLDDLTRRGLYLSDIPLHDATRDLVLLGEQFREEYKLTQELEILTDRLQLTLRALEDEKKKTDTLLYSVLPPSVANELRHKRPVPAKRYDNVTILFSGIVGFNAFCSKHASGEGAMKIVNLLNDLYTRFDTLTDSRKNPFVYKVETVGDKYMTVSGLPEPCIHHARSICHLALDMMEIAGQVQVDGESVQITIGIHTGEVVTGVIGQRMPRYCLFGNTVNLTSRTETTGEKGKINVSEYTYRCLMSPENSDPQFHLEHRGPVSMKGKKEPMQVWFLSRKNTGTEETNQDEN
Kind of experiment: Effect on a recombinant guanylate cyclase reporter cell line (B-2). Format: cell-based. The following applies: in some cases mean values for individual determinations. On the procedure: B-2. Effect on a Recombinant Guanylate Cyclase Reporter Cell Line
The cellular effect of the inventive compounds is determined using a recombinant guanylate cyclase reporter cell line, as described in F. Wunder et al., Anal. Biochem. 339, 104-112 (2005).
Representative MEC values (MEC=minimum effective concentration) for the inventive compounds are shown in the table below (in some cases as mean values for individual determinations): […]

On to `COc1ccc2c(c1)C(NC(=O)c1c(C)nn3c(OCc4c(F)cccc4F)cc(C)cc13)CCC2` (racemic) [Example 146, rac-7-[(2,6-Difluorobenzyl)oxy]-N-(7-methoxy-1,2,3,4-tetrahydronaphthalen-1-yl)-2,5-dimethylpyrazolo[1,5-a]pyridine-3-carboxamide], for which the “MEC (minimum effective concentration)” value is 1.0 µM. As for `Cc1cc(OCc2c(F)cccc2F)n2nc(C)c(C(=O)NC3CC(C)(C)C3N)c2c1` (stereo not drawn) [Example 101, N-(2-Amino-3,3-dimethylcyclobutyl)-7-[(2,6-difluorobenzyl)oxy]-2,5-dimethylpyrazolo[1,5-a]pyridine-3-carboxamide], the figure is 3.0 µM; as for `C=Cc1cccc(C(N)CNC(=O)c2c(C)nn3c(OCc4c(F)cccc4F)cc(C)cc23)c1` (racemic) [Example 141, rac-N-[2-Amino-2-(3-vinylphenyl)ethyl]-7-[(2,6-difluorobenzyl)oxy]-2,5-dimethylpyrazolo[1,5-a]pyridine-3-carboxamide], 3.0 µM; as for `Cc1cc(OCc2c(F)cccc2F)n2nc(C)c(C(=O)NCC(N)c3cccc(OC(F)F)c3)c2c1` (racemic) [Example 116, rac-N-{2-Amino-2-[3-(difluoromethoxy)phenyl]ethyl}-7-[(2,6-difluorobenzyl)oxy]-2,5-dimethylpyrazolo[1,5-a]pyridine-3-carboxamide], 3.0 µM. As for `Cc1cc(OCc2c(F)cccc2F)n2nc(C)c(C(=O)NNc3ccc(F)cc3)c2c1` [Example 66, 7-[(2,6-Difluorobenzyl)oxy]-N′-(4-fluorophenyl)-2,5-dimethylpyrazolo[1,5-a]pyridine-3-carbohydrazide trifluoroacetate], the “MEC (minimum effective concentration)” value was found to be 0.3 µM. As for `Cc1cc(OCc2c(F)cccc2F)n2nc(C3CC3)c(C(=O)NCC(C)(N)CCC(F)(F)F)c2c1` (single isomer, unassigned) [Example 58, ent-N-(2-Amino-5,5,5-trifluoro-2-methylpentyl)-2-cyclopropyl-7-[(2,6-difluorobenzyl)oxy]-5-methylpyrazolo[1,5-a]pyridine-3-carboxamide], the figure is 0.03 µM; as for `CC=CCC(N)CNC(=O)c1c(C)nn2c(OCc3c(F)cccc3F)cc(C)cc12` (racemic) [Example 115, rac-N-[2-Aminohex-4-en-1-yl]-7-[(2,6-difluorobenzyl)oxy]-2,5-dimethylpyrazolo[1,5-a]pyridine-3-carboxamide], 0.3 µM. As for `Cc1cc(OCc2c(F)cccc2F)n2nc(C)c(C(=O)NCC(N)c3cccc(OCCO)c3)c2c1` (racemic) [Example 72, rac-N-{2-Amino-2-[3-(2-hydroxyethoxy)phenyl]ethyl]-7-[(2,6-difluorobenzyl)oxy]-2,5-dimethylpyrazolo[1,5-a]pyridine-3-carboxamide trifluoroacetate], the figure is 10 µM; as for `Cc1cc(OCc2c(F)cccc2F)n2nc(C)c(C(=O)NC3CCN(C)c4ccccc43)c2c1` (racemic) [Example 75, rac-7-[(2,6-Difluorobenzyl)oxy]-2,5-dimethyl-N-(1-methyl-1,2,3,4-tetrahydroquinolin-4-yl)pyrazolo a]pyridine-3-carboxamide trifluoroacetate], 0.03 µM. Take `Cc1cc(OCc2c(F)ccc(F)c2F)n2nc(C)c(C(=O)NC(C)COCC(F)(F)F)c2c1` (racemic) [Example 24, rac-2,5-Dimethyl-7-[(2,3,6-trifluorobenzyl)oxy]-N-[1-(2,2,2-trifluoroethoxy)propan-2-yl]pyrazolo[1,5-a]pyridine-3-carboxamide]: the “MEC (minimum effective concentration)” value came to 0.3 µM. As for `Cc1cc(OCc2c(F)cccc2F)n2nc(C)c(C(=O)Nc3ccnc4ccc(F)cc34)c2c1` [Example 80, 7-[(2,6-Difluorobenzyl)oxy]-N-(6-fluoroquinolin-4-yl)-2,5-dimethylpyrazolo[1,5-a]pyridine-3-carboxamide trifluoroacetate], the figure is 0.03 µM; as for `Cc1cc(OCc2c(F)cccc2F)n2nc(C)c(C(=O)NC(C#N)c3ccc(Cl)cc3)c2c1` (racemic) [Example 134, rac-N-[(4-Chlorophenyl)(cyano)methyl]-7-[(2,6-difluorobenzyl)oxy]-2,5-dimethylpyrazolo[1,5-a]pyridine-3-carboxamide], 0.3 µM; as for `Cc1cc(OCc2c(F)cccc2F)n2nc(C3CC3)c(C(=O)NCC(C)(N)CC(F)F)c2c1` (single isomer, unassigned) [Example 57, ent-N-(2-Amino-4,4-difluoro-2-methylbutyl)-2-cyclopropyl-7-[(2,6-difluorobenzyl)oxy]-5-methylpyrazolo[1,5-a]pyridine-3-carboxamide], 0.3 µM.

In the case of `CCCC(C)(N)CNC(=O)c1c(C(F)(F)F)nn2c(OCc3c(F)cccc3F)cc(C)cc12` (single isomer, unassigned) [Example 52, ent-N-(2-Amino-2-methylpentyl)-7-[(2,6-difluorobenzyl)oxy]-5-methyl-2-(trifluoromethyl)pyrazolol[1,5-a]pyridine-3-carboxamide trifluoroacetate], the “MEC (minimum effective concentration)” value came out at 0.3 µM. As for `COCC(C)(N)CNC(=O)c1c(C)nn2c(OCc3c(F)cccc3F)cc(C)cc12` (racemic) [Example 97, rac-N-(2-Amino-3-methoxy-2-methylpropyl)-7-[(2,6-difluorobenzyl)oxy]-2,5-dimethylpyrazolo[1,5-a]pyridine-3-carboxamide], the figure is 1.0 µM; as for `Cc1cc(OCc2c(F)cccc2F)n2nc(C)c(C(=O)NN3CCN(C)CC3)c2c1` [Example 173, 7-[(2,6-Difluorobenzyl)oxy]-2,5-dimethyl-N-(4-methylpiperazin-1-yl)pyrazolo[1,5-a]pyridine-3-carboxamide], 1.0 µM. As for `Cc1cc(OCc2c(F)cccc2F)n2nc(C)c(C(=O)NC3CC(=O)Nc4ccccc43)c2c1` (racemic) [Example 76, rac-7-[(2,6-Difluorobenzyl)oxy]-2,5-dimethyl-N-(2-oxo-1,2,3,4-tetrahydroquinolin-4-yl)pyrazolo[1,5-a]pyridine-3-carboxamide trifluoroacetate], the figure is 0.3 µM. In the case of `Cc1cc(OCc2c(F)ccc(F)c2F)n2nc(C)c(C(=O)NCc3ccccc3-c3cccnc3)c2c1` [Example 14, 2,5-Dimethyl-N-[2-(pyridin-3-yl)benzyl]-7-[(2,3,6-trifluorobenzyl)oxy]pyrazolo[1,5-a]pyridine-3-carboxamide], the “MEC (minimum effective concentration)” value came out at 0.3 µM. As for `Cc1cc(OCc2c(F)ccc(F)c2F)n2nc(C)c(C(=O)NC3(c4ccc(Cl)cc4)CCCC3)c2c1` [Example 31, N-[1-(4-Chlorophenyl)cyclopentyl]-2,5-dimethyl-7-[(2,3,6-trifluorobenzyl)oxy]pyrazolo[1,5-a]pyridine-3-carboxamide], the figure is 1.0 µM; as for `Cc1cc(OCc2c(F)cccc2F)n2nc(C)c(C(=O)NCC(N)C#N)c2c1` (racemic) [Example 59, rac-N-(2-Amino-2-cyanoethyl)-7-[(2,6-difluorobenzyl)oxy]-2,5-dimethylpyrazolo[1,5-a]pyridine-3-carboxamide], 3.0 µM. As for `Cc1cc(OCc2c(F)ccc(F)c2F)n2nc(C)c(C(=O)NC(CCC(F)(F)C(F)(F)F)C(C)(C)O)c2c1` (single isomer, unassigned; ent-2) [Example 22, ent-2,5-Dimethyl-N-(6,6,7,7,7-pentafluoro-2-hydroxy-2-methylheptan-3-yl)-7-[(2,3,6-trifluorobenzyl)oxy]pyrazolo[1,5-a]pyridine-3-carboxamide], the figure is 0.1 µM.
